Assay results taken from ChEMBL document CHEMBL1129838, “Synthesis and pharmacological evaluation of sulfone substituted HIV protease inhibitors” (Bioorg Med Chem Lett, 1997).
“And” between values parts separate entries of the source, which are not always exact repeats. Equal entries are not always repeated.

What was measured:
[1] = test system: Human immunodeficiency virus 1; test: Antiviral activity against HIV-1 IIIB in H9 (human leukemia) cells.; type: functional, organism-based
[2] = molecular target: Human immunodeficiency virus type 1 protease (Human immunodeficiency virus 1, UniProt Q72874); test: Inhibition of HIV-1 protease.
[3] = Human immunodeficiency virus 1, H9

Row | IC50 [1, 3] | Ki [2] | IC50 ([1]; h9) | Structure (SMILES)
1 | 7700 nM | 2.3 nM |  | O=c1cc(C(CC2CC2)CC2CC2)oc(O)c1C(c1cccc(CS(=O)(=O)c2ccccn2)c1)C1CC1 (centres undefined)
2 |  | 0.73 nM | > 1000 nM and < 3000 nM | Cn1ccnc1S(=O)(=O)Nc1cccc(C(c2c(O)cc(C(CC3CC3)CC3CC3)oc2=O)C2CC2)c1 (centres undefined)
3 | 10000 nM | 1.9 nM |  | O=c1c2c(oc(O)c1C(c1cccc(CS(=O)(=O)c3ccccn3)c1)C1CC1)CCCCCC2 (centres undefined)
4 |  | 0.66 nM | > 1000 nM and < 3000 nM | O=c1cc(C(CC2CC2)CC2CC2)oc(O)c1C(c1cccc(NS(=O)(=O)c2ccccn2)c1)C1CC1 (centres undefined)
5 | 14500 nM | 2.1 nM |  | O=c1c2c(oc(O)c1C(c1cccc(CS(=O)(=O)c3ccc(F)cc3)c1)C1CC1)CCCCCC2 (centres undefined)
6 | 20500 nM | 1.9 nM |  | N#Cc1ccc(S(=O)(=O)Cc2cccc(C(c3c(O)oc4c(c3=O)CCCCCC4)C3CC3)c2)cc1 (centres undefined)
7 | > 30000 nM | 7 nM |  | O=C(O)c1ccc(S(=O)(=O)Cc2cccc(C(c3c(O)c4c(oc3=O)CCCCCC4)C3CC3)c2)cc1 (centres undefined)
8 | > 30000 nM | 4.1 nM |  | Cc1ccc(S(=O)(=O)Cc2cccc(C(c3c(O)c4c(oc3=O)CCCCCC4)C3CC3)c2)cc1 (centres undefined)
9 | > 30000 nM | 6 nM |  | O=c1c2c(oc(O)c1C(c1cccc(CS(=O)(=O)c3ccccc3)c1)C1CC1)CCCCCC2 (centres undefined)
10 | 19800 nM | 19 nM |  | O=c1cc(C(CC2CC2)CC2CC2)oc(O)c1C(c1cccc(CS(=O)(=O)c2ccc(F)cc2)c1)C1CC1 (centres undefined)
11 | > 3000 nM | 1.1 nM |  | Cn1ccnc1S(=O)(=O)Nc1cccc(C(c2c(O)c3c(oc2=O)CCCCCC3)C2CC2)c1 (centres undefined)
12 | 5000 nM |  |  | O=c1c2c(oc(O)c1C(c1cccc(NS(=O)(=O)c3ccccc3)c1)C1CC1)CCCCCC2 (centres undefined)
13 | < 1000 nM | 0.86 nM |  | O=c1c2c(oc(O)c1C(c1cccc(NS(=O)(=O)c3ccccn3)c1)C1CC1)CCCCCC2 (centres undefined)
14 | > 10000 nM |  |  | O=C(O)c1ccc(S(=O)(=O)Nc2cccc(C(c3c(O)c4c(oc3=O)CCCCCC4)C3CC3)c2)cc1 (centres undefined)
15 | 1500 nM |  |  | N#Cc1ccc(S(=O)(=O)Nc2cccc(C(c3c(O)c4c(oc3=O)CCCCCC4)C3CC3)c2)cc1 (centres undefined)
16 | 2100 nM |  |  | O=c1c2c(oc(O)c1C(c1cccc(NS(=O)(=O)c3ccc(F)cc3)c1)C1CC1)CCCCCC2 (centres undefined)
17 | 3600 nM |  |  | Cc1ccc(S(=O)(=O)Nc2cccc(C(c3c(O)c4c(oc3=O)CCCCCC4)C3CC3)c2)cc1 (centres undefined)
18 | 20400 nM | 3 nM |  | Cn1ccnc1S(=O)(=O)Cc1cccc(C(c2c(O)c3c(oc2=O)CCCCCC3)C2CC2)c1 (centres undefined)
19 | 12000 nM | 3.1 nM |  | Cn1ccnc1S(=O)(=O)Cc1cccc(C(c2c(O)cc(C(CC3CC3)CC3CC3)oc2=O)C2CC2)c1 (centres undefined)
20 | 2200 nM |  |  | O=c1cc(C(CC2CC2)CC2CC2)oc(O)c1C(c1cccc(NS(=O)(=O)c2ccc(F)cc2)c1)C1CC1 (centres undefined)
